Patent publication US7102027B2, “Adamantanetricarboxylic acid derivatives” (Daicel Chemical Industries, Ltd., priority 2003, dated 2006)
Where two headings read alike, the source gives them in different places.

Experiment: Dissolution of monomer components in mesitylene to prepare a coating liquid
Type: physicochemical
Protocol: In 100 g of mesitylene were dissolved 2.48 g (8 mmol) of trimethyl ester of 1,3,5-adamantanetricarboxylic acid prepared in Example 1 and 6.42 g (12 mmol) of 3,3′-diaminobenzidinetetracyclohexanoimine [N,N′,N″,N′″-tetracyclohexylidene-3,4,3′,4′-biphenyltetramine] prepared in Preparation Example 1 at room temperature in a nitrogen atmosphere, to yield a coating liquid having a monomer concentration of 8.2% by weight. After filtrating through a filter with a pore size of 0.1 μm, the coating liquid was applied to an 8-inch silicon wafer by spin coating. This was heated at 300° C. in a nitrogen atmosphere for 30 minutes and was then heated at 400° C. for further 30 minutes, to form a film. The infrared absorption spectrum of the resulting polymer film was determined. The result is shown in FIG. 1, verifying that the target crosslinked polybenzazole film was formed.
A coating liquid was prepared by the procedure of Example • 7, except using equal amounts of • 1,3,5-adamantanetricarboxylic acid and • 3,3′-diaminobenzidine instead of trimethyl ester of • 1,3,5-adamantanetricarboxylic acid and • N,N′,N″,N′″-tetracyclohexylidene-3,4,3′,4′-biphenyltetramine, respectively. […] The infrared absorption spectrum of the resulting polymer film was determined, verifying that the target crosslinked polybenzazole film was formed.

solubility in the solvent (mesitylene)	SMILES	solubility in the solvent (mesitylene) (procedure of Example 7: 8 mmol acid and 12 mmol amine together in 100 g mesitylene, room temperature, nitrogen atmosphere)
not sufficiently dissolved	O=C(O)C12CC3CC(C(=O)O)(C1)CC(C(=O)O)(C3)C2 [1,3,5-adamantanetricarboxylic acid]	–
–	Nc1ccc(-c2ccc(N)c(N)c2)cc1N [3,3′-diaminobenzidine]	not sufficiently dissolved
